Results from patent publication US20200377561A1, “ANTIMICROBIAL PEPTIDES AND METHODS OF TREATING GRAM-NEGATIVE PATHOGEN INFECTIONS: POLAR AND NON-POLAR FACE ANALOGS” (THE REGENTS OF THE UNIVERSITY OF COLORADO, a body corporate, priority 2017, published 2020).
Peptide text beside a SMILES is read from it.

Experiments:
[1] = test system: Acinetobacter baumannii NCTC 13420; format: cell-based; details: NCTC 13420
Method: (§1) Bacterial strains were acquired from the American Type Culture Collection (ATCC, Virginia, USA) and the National Collection of Type Cultures (NCTC, Public Health England, Salisbury, UK). Minimum Inhibitory Concentration (MIC) of peptides versus gram-negative strains-Acinetobacter baumannii NCTC 13420, and Pseudomonas aeruginosa ATCC 27853 and gram-positive strain Staphylococcus aureus ATCC 29213, were determined by broth microdilution as per the guidelines of the Clinical and Laboratory Standards Institute (“Methods for Dilution Antimicrobial Susceptibility Tests for Bacteria That Grow Aerobically”; Approved Standard-Ninth Edition. CLSI document M07-A9, 2012). Peptides were dissolved in sterile distilled water, which was also used as the drug-free vehicle control when determining peptide MICs. Prior to use in the MIC protocol, bacterial strains were grown on Mueller Hinton agar at 37° C. in an ambient atmosphere. […] A fixed inoculum of the test microorganism (5×10^5 cells/mL) is also added to the plate. The MIC is determined as the lowest concentration of compound that inhibits visible bacterial growth following incubation at 37° C. for 16-20 hours. A difference in MIC of two-fold between experimental replicates is considered to be within the normal variability of this protocol.

[2] = test system: Pseudomonas aeruginosa ATCC 27853; format: cell-based; details: ATCC 27853
Method: as §1

[3] = test system: Staphylococcus aureus ATCC 29213; format: cell-based; details: ATCC 29213
Method: as §1

Human erythrocytes = assay: Haemolysis assay using human blood; format: cell-based; details: red cells of human, 1 h
Method: To determine the extent of haemolytic activity (the ability to lyse red blood cells) in test peptides, a haemolysis assay was conducted using human blood (BioIVT, West Sussex, UK). Human erythrocytes were exposed to a single fixed concentration or a range of concentrations as to determine the % haemolysis (fixed concentration) or the concentration at which 50% haemolysis occurred (HC50), respectively. Prior to the assay, whole human blood was repeatedly washed in phosphate buffered saline (PBS) under cooled conditions to remove the buffy coat, plasma and cell debris. Washed erythrocytes were diluted as to achieve 1×10^8 cells/mL in PBS. Prepared human erythrocyte samples were combined with peptide at a single fixed concentration of 128 μg/mL, or a range of concentrations (two-fold dilution series) from 1000-31.25 μg/mL. Positive and negative controls containing 2% (v/v) Triton X-100 and PBS alone, respectively, were also prepared. Samples were incubated at 37° C. for 1 hour and then centrifuged to collect intact erythrocytes. Haemoglobin release was determined by recording the optical density of the supernatant at 540 nm. Optical density values were transformed to a percentage of the positive control. Results were recorded as a percentage haemolysis at 128 μg/mL, or by plotting the percentage haemolysis versus concentration and extrapolating the HC50 using linear regression analysis (Table 2 above)
The therapeutic index is a widely-accepted parameter to represent the specificity of antimicrobial peptides for prokaryotic versus eukaryotic cells. It is calculated by the ratio of hemolytic activity and antimicrobial activity (MIC) (Table 2 above); thus, larger values of therapeutic index indicate greater specificity for prokaryotic cells. With the peptides used in this study the inventors used the HC50/MIC ratio value to calculate the therapeutic index.

[4] = Peptide hydrophobicity by RP-HPLC retention; format: physicochemical; details: for tR (relative hydrophobicity by RP-HPLC): Zorbax SB-300 C8, 0.25% B/min from 10% B, 0.3 ml/min, 30° C.; for ΔtR (Lys): retention time difference to the Lys13/Lys16 parent peptide
From the text: Retention behavior in RP-HPLC is an excellent method to represent overall peptide hydrophobicity. Retention times of peptides are highly sensitive to the conformational status of the peptides upon interaction with the hydrophobic environment of the column matrix^17,26. The non-polar faces of amphipathic alpha-helical and amphipathic cyclic beta-sheet peptides represent a preferred binding domain for interaction with the hydrophobic matrix of the reversed-phase column^27. In this study, the observed peptide hydrophobicity was determined by RP-HPLC retention time as described below and are relative hydrophobicities because they are dependent on the TFA concentration and organic solvent in the mobile phase, gradient rate, temperature, flow rate and the column used. Analytical Purification by Reversed-phase Chromatography: Analytical RP-HPLC: Column: Zorbax SB-300 C8 (150×2.1 mm ID; 5-μm particle size; 300 Å pore size). Conditions: linear AB gradient (0.25% B/min from 10% B) at a flow-rate of 0.3 ml/min, where Eluent A is 0.2% aq. TFA and Eluent B is 0.18% TFA in acetonitrile; 30° C.

| SMILES | Antimicrobial Activity MIC A. baumannii NCTC13420 [1] | P. aeruginosa ATCC27853 MIC [2] | S. Aureus ATCC22213 MIC [3] | tR (relative hydrophobicity by RP-HPLC) [4] | ΔtR (Lys) [4] | Haemolysis HC50 (Human erythrocytes) |
| --- | --- | --- | --- | --- | --- | --- |
| CC(=O)N[C@H](CCCCN)C(=O)N[C@H](CC(C)C)C(=O)N[C@H](CCCCN)C(=O)N[C@H](CCCCN)C(=O)N[C@H](CC(C)C)C(=O)N[C@H](CC(C)C)C(=O)N[C@H](CCCCN)C(=O)N[C@H](CCCCN)C(=O)N[C@H](CC(C)C)C(=O)N[C@H](CCCCN)C(=O)N[C@H](CO)C(=O)N[C@H](C)C(=O)N[C@H](CCCCN)C(=O)N[C@H](CO)C(=O)N[C@H](CO)C(=O)N[C@H](CCCCN)C(=O)N[C@H](CC(C)C)C(=O)N[C@H](CO)C(=O)N[C@@H](C(=O)N[C@H](CC(C)C)C(=O)N[C@H](CC(C)C)C(=O)N[C@H](CO)C(=O)N[C@H](CCCCN)C(=O)N[C@H](CC(C)C)C(=O)N[C@H](CCCCN)C(=O)N[C@H](CCCCN)C(N)=O)[C@H](C)O [compound 6] (HELM PEPTIDE1{[ac].[dK].[dL].[dK].[dK].[dL].[dL].[dK].[dK].[dL].[dK].[dS].[dA].[dK].[dS].[dS].[dK].[dL].[dS].[dT].[dL].[dL].[dS].[dK].[dL].[dK].[dK].[am]}$$$$V2.0) | 2 mg/L | 2 mg/L | 128 mg/L | – | – | >2000 µg/mL |
| CC(=O)N[C@H](C)C(=O)N[C@H](CC(C)C)C(=O)N[C@H](CCCCN)C(=O)N[C@H](CCCCN)C(=O)N[C@H](CC(C)C)C(=O)N[C@H](CC(C)C)C(=O)N[C@H](CCCCN)C(=O)N[C@H](CCCCN)C(=O)N[C@H](CC(C)C)C(=O)N[C@H](CO)C(=O)N[C@H](CO)C(=O)N[C@H](C)C(=O)N[C@H](CCCN)C(=O)N[C@H](CO)C(=O)N[C@H](CO)C(=O)N[C@H](CCCN)C(=O)N[C@H](CC(C)C)C(=O)N[C@H](CO)C(=O)N[C@@H](C(=O)N[C@H](CC(C)C)C(=O)N[C@H](CC(C)C)C(=O)N[C@H](CCCCN)C(=O)N[C@H](CCCCN)C(=O)N[C@H](CC(C)C)C(=O)N[C@H](CCCCN)C(=O)N[C@H](CCCCN)C(N)=O)[C@H](C)O [compound 19] (HELM PEPTIDE1{[ac].[dA].[dL].[dK].[dK].[dL].[dL].[dK].[dK].[dL].[dS].[dS].[dA].[NCCC[C@@H](N[*:1])C(=O)[*:2]].[dS].[dS].[NCCC[C@@H](N[*:1])C(=O)[*:2]].[dL].[dS].[dT].[dL].[dL].[dK].[dK].[dL].[dK].[dK].[am]}$$$$V2.0) | 2 mg/L | 4 mg/L | – | 91.57 min | 2.94 min | >1000 µg/mL |
| CC(=O)N[C@H](C)C(=O)N[C@H](CC(C)C)C(=O)N[C@H](CCCCN)C(=O)N[C@H](CCCCN)C(=O)N[C@H](CC(C)C)C(=O)N[C@H](CC(C)C)C(=O)N[C@H](CCCCN)C(=O)N[C@H](CCCCN)C(=O)N[C@H](CC(C)C)C(=O)N[C@H](CO)C(=O)N[C@H](CO)C(=O)N[C@H](C)C(=O)N[C@H](CCCCN)C(=O)N[C@H](CO)C(=O)N[C@H](CO)C(=O)N[C@H](CCCCN)C(=O)N[C@H](CC(C)C)C(=O)N[C@H](CO)C(=O)N[C@@H](C(=O)N[C@H](CC(C)C)C(=O)N[C@H](CC(C)C)C(=O)N[C@H](CCCCN)C(=O)N[C@H](CCCCN)C(=O)N[C@H](CC(C)C)C(=O)N[C@H](CCCCN)C(=O)N[C@H](CCCCN)C(N)=O)[C@H](C)O [compound 8] (HELM PEPTIDE1{[ac].[dA].[dL].[dK].[dK].[dL].[dL].[dK].[dK].[dL].[dS].[dS].[dA].[dK].[dS].[dS].[dK].[dL].[dS].[dT].[dL].[dL].[dK].[dK].[dL].[dK].[dK].[am]}$$$$V2.0) | 2 mg/L | 4 mg/L | – | 94.51 min | – | >1000 µg/mL |

The next lines start with results.

| Antimicrobial Activity MIC A. baumannii NCTC13420 [1] | P. aeruginosa ATCC27853 MIC [2] | S. Aureus ATCC22213 MIC [3] | tR (relative hydrophobicity by RP-HPLC) [4] | ΔtR (Lys) [4] | SMILES | Haemolysis HC50 (Human erythrocytes) |
| --- | --- | --- | --- | --- | --- | --- |
| 2 mg/L | 4 mg/L | – | 91.57 min | 2.94 min | CC(=O)N[C@H](C)C(=O)N[C@H](CC(C)C)C(=O)N[C@H](CCCCN)C(=O)N[C@H](CCCCN)C(=O)N[C@H](CC(C)C)C(=O)N[C@H](CC(C)C)C(=O)N[C@H](CCCCN)C(=O)N[C@H](CCCCN)C(=O)N[C@H](CC(C)C)C(=O)N[C@H](CO)C(=O)N[C@H](CO)C(=O)N[C@H](C)C(=O)N[C@H](CCN)C(=O)N[C@H](CO)C(=O)N[C@H](CO)C(=O)N[C@H](CCN)C(=O)N[C@H](CC(C)C)C(=O)N[C@H](CO)C(=O)N[C@@H](C(=O)N[C@H](CC(C)C)C(=O)N[C@H](CC(C)C)C(=O)N[C@H](CCCCN)C(=O)N[C@H](CCCCN)C(=O)N[C@H](CC(C)C)C(=O)N[C@H](CCCCN)C(=O)N[C@H](CCCCN)C(N)=O)[C@H](C)O [compound 20] (HELM PEPTIDE1{[ac].[dA].[dL].[dK].[dK].[dL].[dL].[dK].[dK].[dL].[dS].[dS].[dA].[NCC[C@@H](N[*:1])C(=O)[*:2]].[dS].[dS].[NCC[C@@H](N[*:1])C(=O)[*:2]].[dL].[dS].[dT].[dL].[dL].[dK].[dK].[dL].[dK].[dK].[am]}$$$$V2.0) | >1000 µg/mL |
| 2 mg/L | 4 mg/L | – | 84.06 min | 3.31 min | CC(=O)N[C@H](CCCCN)C(=O)N[C@H](CC(C)C)C(=O)N[C@H](CCCCN)C(=O)N[C@H](CCCCN)C(=O)N[C@H](CC(C)C)C(=O)N[C@H](CC(C)C)C(=O)N[C@H](CCCCN)C(=O)N[C@H](CCCCN)C(=O)N[C@H](CC(C)C)C(=O)N[C@H](CO)C(=O)N[C@H](CO)C(=O)N[C@H](C)C(=O)N[C@H](CN)C(=O)N[C@H](CO)C(=O)N[C@H](CO)C(=O)N[C@H](CN)C(=O)N[C@H](CC(C)C)C(=O)N[C@H](CO)C(=O)N[C@@H](C(=O)N[C@H](CC(C)C)C(=O)N[C@H](CC(C)C)C(=O)N[C@H](CCCCN)C(=O)N[C@H](CCCCN)C(=O)N[C@H](CC(C)C)C(=O)N[C@H](CCCCN)C(=O)N[C@H](CCCCN)C(N)=O)[C@H](C)O [compound 16] (HELM PEPTIDE1{[ac].[dK].[dL].[dK].[dK].[dL].[dL].[dK].[dK].[dL].[dS].[dS].[dA].[NC[C@@H](N[*:1])C(=O)[*:2]].[dS].[dS].[NC[C@@H](N[*:1])C(=O)[*:2]].[dL].[dS].[dT].[dL].[dL].[dK].[dK].[dL].[dK].[dK].[am]}$$$$V2.0) | >1000 µg/mL |
| 2 mg/L | 4 mg/L | – | 94.92 min | 0.41 min | CC(=O)N[C@H](C)C(=O)N[C@H](CC(C)C)C(=O)N[C@H](CCCCN)C(=O)N[C@H](CCCCN)C(=O)N[C@H](CC(C)C)C(=O)N[C@H](CC(C)C)C(=O)N[C@H](CCCCN)C(=O)N[C@H](CCCCN)C(=O)N[C@H](CC(C)C)C(=O)N[C@H](CO)C(=O)N[C@H](CO)C(=O)N[C@H](C)C(=O)N[C@H](CN)C(=O)N[C@H](CO)C(=O)N[C@H](CO)C(=O)N[C@H](CN)C(=O)N[C@H](CC(C)C)C(=O)N[C@H](CO)C(=O)N[C@@H](C(=O)N[C@H](CC(C)C)C(=O)N[C@H](CC(C)C)C(=O)N[C@H](CCCCN)C(=O)N[C@H](CCCCN)C(=O)N[C@H](CC(C)C)C(=O)N[C@H](CCCCN)C(=O)N[C@H](CCCCN)C(N)=O)[C@H](C)O [compound 21] (HELM PEPTIDE1{[ac].[dA].[dL].[dK].[dK].[dL].[dL].[dK].[dK].[dL].[dS].[dS].[dA].[NC[C@@H](N[*:1])C(=O)[*:2]].[dS].[dS].[NC[C@@H](N[*:1])C(=O)[*:2]].[dL].[dS].[dT].[dL].[dL].[dK].[dK].[dL].[dK].[dK].[am]}$$$$V2.0) | >1000 µg/mL |
